Drawing on patent US20260317324A1, “BIFUNCTIONAL COMPOUNDS FOR DEGRADING BRAF VIA UBIQUITIN PROTEOSOME PATHWAY” (Nurix Therapeutics, Inc., priority 2023, published 2026), this text covers DC50 and Dmax for nine molecules.

Holding throughout (format): cell-based
Experiment [1] concerns the target T1, BRAF V600E (Homo sapiens, UniProt P15056, V600E).
T1 construct: endogenous C-terminal HiBiT fusion tag on BRAF V600E allele; endogenous in cells; host or cells: A375 clone 1F10 (CRISPR-Cas9 knock-in of the HiBiT tag; parental A375 from ATCC)
Description: BRAF HiBiT degradation assay, C-terminal HiBiT-tagged BRAF V600E A375 cells (clone 1F10), Nano-Glo HiBiT Lytic assay. To be noted: for Dmax: A-375. The gist of the method: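 Luminescence read-out: Nano-Glo HiBiT lytic reagent with LgBiT, 10 min at room temperature. Signal normalised to DMSO-treated tagged cells, with wildtype A375 as background. Cells are endogenously tagged BRAF V600E A375 clone 1F10. Compounds were tested from 1 μM to 0.01 nM; Dmax is observed % degraded at maximal effect.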
Background: HiBiT is a short tag that completes a luciferase, so light tracks the accessible tagged protein.

Experiment [2] concerns the target T2, BRAF D594G (Homo sapiens, UniProt P15056, D594G).
T2 construct: Horizon Discovery (HCT-116 BRAF−/− cells); host or cells: HCT-116 BRAF−/− cells, clone 63, lentiviral transduction
Description: BRAF HiBiT degradation assay, C-terminal HiBiT-tagged BRAF D594G overexpressed in HCT-116 BRAF−/− cells (clone 63), Nano-Glo HiBiT Lytic assay. The method in brief:
(§1)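 Cells 3,000/well, 24 h at 37 °C; cpds 1 μM–0.01 nM, 11-pt half-log, duplicate, 0.2% DMSO. Readout: HiBiT lytic luminescence, 10 min at RT. Normalized to DMSO-treated tagged cells, with DMSO-treated wild-type HCT-116 as background. DC50 = fitted concentration at Y=50; Obs. Dmax = % degraded at maximal effect.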

The target in experiment [3] is T3, BRAF G469A (Homo sapiens, UniProt P15056, G469A).
T3 construct: Horizon Discovery (HCT-116 BRAF−/− cells); host or cells: HCT-116 BRAF−/− cells, clone 34, lentiviral transduction
In words: BRAF HiBiT degradation assay, C-terminal HiBiT-tagged BRAF G469A overexpressed in HCT-116 BRAF−/− cells (clone 34), Nano-Glo HiBiT Lytic assay. The gist of the method:
as §1

In experiment [4] the target is T4, BRAF G466V (Homo sapiens, UniProt P15056, G466V).
T4 construct: Horizon Discovery (HCT-116 BRAF−/− cells); host or cells: HCT-116 BRAF−/− cells, clone 8, lentiviral transduction
In words: BRAF HiBiT degradation assay, C-terminal HiBiT-tagged BRAF G466V overexpressed in HCT-116 BRAF−/− cells (clone 8), Nano-Glo HiBiT Lytic assay. The gist of the method:
as §1

[5] abbreviates: A375 (BRAF V600E, Class 1), DC50 at 50% degradation.
The mark [6] stands for this setting: A375 (BRAF V600E, Class 1), observed Dmax, % protein degraded relative to DMSO control.
Where [7] appears, read: BRAF D594G (Class 3), HCT-116 BRAF−/− cells, DC50 at 50% degradation.
[8] abbreviates: BRAF D594G (Class 3), HCT-116 BRAF−/− cells, observed Dmax relative to DMSO control.
Setting [9] is: BRAF G469A (Class 2), HCT-116 BRAF−/− cells, DC50 at 50% degradation.
Setting [10] is: BRAF G469A (Class 2), HCT-116 BRAF−/− cells, observed Dmax relative to DMSO control.
Setting [11] is: BRAF G466V (Class 3), HCT-116 BRAF−/− cells, DC50 at 50% degradation.
The mark [12] stands for this setting: BRAF G466V (Class 3), HCT-116 BRAF−/− cells, observed Dmax relative to DMSO control.
Where [13] appears, read: A375 (BRAF V600E), DC50 at 50%: fitted conc. at Y=50.
Where [14] appears, read: A375 (BRAF V600E), percentage protein degraded at maximal compound effect relative to DMSO.
[15] abbreviates: BRAF D594G, DC50 at 50%: fitted conc. at Y=50.
[16] abbreviates: HCT-116, BRAF D594G, percentage protein degraded at maximal compound effect relative to DMSO.
Where [17] appears, read: Class 2, BRAF G469A, DC50 at 50%: fitted conc. at Y=50.
Where [18] appears, read: HCT-116, Class 2, BRAF G469A, percentage protein degraded at maximal compound effect relative to DMSO.
Setting [19] is: BRAF G466V, DC50 at 50%: fitted conc. at Y=50.
[20] abbreviates: HCT-116, BRAF G466V, percentage protein degraded at maximal compound effect relative to DMSO.

T2 sequence (P15056 whole entry D594G): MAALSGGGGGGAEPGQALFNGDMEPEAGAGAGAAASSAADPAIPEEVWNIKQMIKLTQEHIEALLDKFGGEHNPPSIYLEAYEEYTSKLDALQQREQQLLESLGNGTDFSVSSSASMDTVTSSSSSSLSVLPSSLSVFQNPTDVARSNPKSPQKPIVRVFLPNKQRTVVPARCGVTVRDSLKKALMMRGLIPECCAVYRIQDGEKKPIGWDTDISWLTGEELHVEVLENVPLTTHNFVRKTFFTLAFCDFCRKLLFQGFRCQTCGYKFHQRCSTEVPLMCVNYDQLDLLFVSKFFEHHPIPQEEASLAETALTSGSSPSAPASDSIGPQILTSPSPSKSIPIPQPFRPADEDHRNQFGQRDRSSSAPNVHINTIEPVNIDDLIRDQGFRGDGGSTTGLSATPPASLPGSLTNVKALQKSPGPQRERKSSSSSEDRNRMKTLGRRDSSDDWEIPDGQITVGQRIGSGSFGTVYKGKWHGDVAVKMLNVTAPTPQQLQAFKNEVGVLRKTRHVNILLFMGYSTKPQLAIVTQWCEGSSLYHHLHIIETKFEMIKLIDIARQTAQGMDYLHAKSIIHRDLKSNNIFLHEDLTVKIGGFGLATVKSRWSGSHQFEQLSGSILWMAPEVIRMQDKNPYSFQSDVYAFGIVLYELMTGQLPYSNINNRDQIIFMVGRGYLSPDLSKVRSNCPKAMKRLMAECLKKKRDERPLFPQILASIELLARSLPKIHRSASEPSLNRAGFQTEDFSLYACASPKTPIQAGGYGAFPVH
T4 sequence (P15056 whole entry G466V): as the sequence (P15056 whole entry D594G) above, with G466V, G594D counted along it
T1 sequence (P15056 whole entry V600E, the tested form may be a part): as the sequence (P15056 whole entry D594G) above, with G594D, V600E counted along it
T3 sequence (P15056 whole entry G469A): as the sequence (P15056 whole entry D594G) above, with G469A, G594D counted along it

With `O=C1CC[C@@H](c2ccc(N3CCC(CN4CCN(c5ccc(-n6cc(-c7cc(Cl)cc(NS(=O)(=O)N8CCCC8)c7F)c(-c7ccncc7)n6)nc5)CC4)CC3)nc2)C(=O)N1` [Compound 383, N-{5-chloro-3-[1-(5-{4-[(1-{5-[(3S)-2,6-dioxopiperidin-3-yl]pyridin-2-yl}piperidin-4-yl)methyl]piperazin-1-yl}pyridin-2-yl)-3-(pyridin-4-yl)-1H-pyrazol-4-yl]-2-fluorophenyl}pyrrolidine-1-sulfonamide], the DC50 in experiment [1] (setting [5]) was below 10 nM; in experiment [2] (setting [7]), below 10 nM; in experiment [3] (setting [9]), 10 to 50 nM; in experiment [4] (setting [11]), below 10 nM. Also, the Dmax in experiment [1] (setting [6]), in experiment [2] (setting [8]), in experiment [3] (setting [10]) and in experiment [4] (setting [12]) was above 70% in each case.

For the molecule `CCCS(=O)(=O)Nc1cccc(-c2cn(-c3ccc(N4CCC(CN5CCN(c6ccc(C7CCC(=O)NC7=O)cc6)CC5)CC4)cc3)nc2-c2ccncc2)c1F` (racemic) [Compound 381, Rac-(R)—N-(3-(1-(4-(4-((4-(4-(2,6-dioxopiperidin-3-yl)phenyl)piperazin-1-yl)methyl)piperidin-1-yl)phenyl)-3-(pyridin-4-yl)-1H-pyrazol-4-yl)-2-fluorophenyl)propane-1-sulfonamide], the DC50 is 10 to 50 nM in experiment [1] (setting [5]), below 10 nM in experiment [2] (setting [7]), 10 to 50 nM in experiment [3] (setting [9]) and 10 to 50 nM in experiment [4] (setting [11]). Besides, the Dmax in experiment [1] (setting [6]) was above 70%; in experiment [2] (setting [8]), 30 to 70%; in experiment [3] (setting [10]) it was 30 to 70%; in experiment [4] (setting [12]), 30 to 70%.

In the case of `CCCS(=O)(=O)Nc1cccc(-c2nc(-c3ccc(C4CCN(CC5CCN(c6ccc(C7CCC(=O)NC7=O)cn6)CC5)CC4)cc3)sc2-c2ccnc(N)n2)c1F` (racemic) [Compound 208, Rac-N-{3-[5-(2-aminopyrimidin-4-yl)-2-(4-{1-[(1-{5-[(3R)-2,6-dioxopiperidin-3-yl]pyridin-2-yl}piperidin-4-yl)methyl]piperidin-4-yl}phenyl)-1,3-thiazol-4-yl]-2-fluorophenyl}propane-1-sulfonamide], the DC50 was 10 to 50 nM in experiment [1] (setting [13]), above 500 nM in experiment [2] (setting [15]), above 500 nM in experiment [3] (setting [17]) and above 500 nM in experiment [4] (setting [19]). Further, the Dmax in experiment [1] (setting [14]) was above 70%; in experiment [2] (setting [16]) it was 30 to 70%; in experiment [3] (setting [18]), 30 to 70%; in experiment [4] (setting [20]) it was 30 to 70%.

Consider `CCCS(=O)(=O)Nc1cccc(-c2nc(C(C)(C)C)sc2-c2ccnc(Nc3ccc(N4CCN(C(=O)CC5CCN(c6ccc(C7CCC(=O)NC7=O)cn6)CC5)CC4)c(F)c3)n2)c1F` (racemic) [Compound 48, Rac-N-[3-(2-tert-butyl-5-{2-[(4-{4-[2-(1-{5-[(3R)-2,6-dioxopiperidin-3-yl]pyridin-2-yl}piperidin-4-yl)acetyl]piperazin-1-yl}-3-fluorophenyl)amino]pyrimidin-4-yl}-1,3-thiazol-4-yl)-2-fluorophenyl]propane-1-sulfonamide], for which the DC50 in experiment [1] (setting [13]) is below 10 nM; in experiment [2] (setting [15]) it was above 500 nM; in experiment [3] (setting [17]) it was above 500 nM; in experiment [4] (setting [19]), above 500 nM. The Dmax in experiment [1] (setting [14]) is above 70%; in experiment [2] (setting [16]) it was 30 to 70%; in experiment [3] (setting [18]), below 30%; in experiment [4] (setting [20]), below 30%.

Take `C[C@@H]1CN(c2ccc(-n3cc(-c4cc(Cl)cc(NS(=O)(=O)N5CCCC5)c4F)c(-c4ccncc4)n3)cc2)CCN1CC1CCN(c2ccc(N3CCC(=O)NC3=O)cc2)CC1` [Compound 319, N-[5-chloro-3-(1-{4-[(3R)-4-({1-[4-(2,4-dioxo-1,3-diazinan-1-yl)phenyl]piperidin-4-yl}methyl)-3-methylpiperazin-1-yl]phenyl}-3-(pyridin-4-yl)-1H-pyrazol-4-yl)-2-fluorophenyl]pyrrolidine-1-sulfonamide]: the DC50 was below 10 nM in experiment [1] (setting [5]), below 10 nM in experiment [2] (setting [7]), 50 to 500 nM in experiment [3] (setting [9]) and below 10 nM in experiment [4] (setting [11]). Further, the Dmax in experiment [1] (setting [6]) was above 70%; in experiment [2] (setting [8]), 30 to 70%; in experiment [3] (setting [10]) it was 30 to 70%; in experiment [4] (setting [12]), above 70%.

As for `CCCS(=O)(=O)Nc1cccc(-c2nc(C3CCN(C(=O)C4(C)CCN(C(=O)C5CCN(c6ccc(C7CCC(=O)NC7=O)cc6)CC5)CC4)CC3)sc2-c2ccnc(NC(C)C)n2)c1F` (racemic) [Compound 179, Rac-N-[3-(2-{1-[1-(1-{4-[(3R)-2,6-dioxopiperidin-3-yl]phenyl}piperidine-4-carbonyl)-4-methylpiperidine-4-carbonyl]piperidin-4-yl}-5-{2-[(propan-2-yl)amino]pyrimidin-4-yl}-1,3-thiazol-4-yl)-2-fluorophenyl]propane-1-sulfonamide], the DC50 in experiment [1] (setting [13]) was below 10 nM; in experiment [2] (setting [15]), below 10 nM; in experiment [3] (setting [17]), above 500 nM; in experiment [4] (setting [19]) it was above 500 nM. For the same molecule, the Dmax in experiment [1] (setting [14]) was above 70%; in experiment [2] (setting [16]) it was 30 to 70%; in experiment [3] (setting [18]), below 30%; in experiment [4] (setting [20]), 30 to 70%.

On to `CCN(C)S(=O)(=O)Nc1cc(F)cc(-c2cn(-c3ccc(N4CCN(CC5CCN(c6ccc(C7CCC(=O)NC7=O)cn6)CC5)CC4)cc3)nc2-c2ccncc2)c1F` (racemic) [Compound 376, Rac-(3R)-3-(6-{4-[(4-{4-[4-(3-{[ethyl(methyl)sulfamoyl]amino}-2,5-difluorophenyl)-3-(pyridin-4-yl)-1H-pyrazol-1-yl]phenyl}piperazin-1-yl)methyl]piperidin-1-yl}pyridin-3-yl)piperidine-2,6-dione], for which the 50% degradation concentration (DC50) in experiment [1] (setting [5]) was below 10 nM; in experiment [2] (setting [7]) it was below 10 nM; in experiment [3] (setting [9]), 10 to 50 nM; in experiment [4] (setting [11]), below 10 nM. In addition, the Dmax was above 70% in experiment [1] (setting [6]), above 70% in experiment [2] (setting [8]), 30 to 70% in experiment [3] (setting [10]) and above 70% in experiment [4] (setting [12]).

With `CCCS(=O)(=O)Nc1cccc(-c2nc(C(C)(C)C)sc2-c2ccnc(Nc3ccc(N4CCN(CC5CCN(c6ccc(C7CCC(=O)NC7=O)cn6)CC5)CC4)c(F)c3)n2)c1F` (racemic) [Compound 45, Rac-N-[3-(2-tert-butyl-5-{2-[(4-{4-[(1-{5-[(3R)-2,6-dioxopiperidin-3-yl]pyridin-2-yl}piperidin-4-yl)methyl]piperazin-1-yl}-3-fluorophenyl)amino]pyrimidin-4-yl}-1,3-thiazol-4-yl)-2-fluorophenyl]propane-1-sulfonamide], the DC50 in experiment [1] (setting [13]) is 10 to 50 nM; in experiment [2] (setting [15]), 10 to 50 nM; in experiment [3] (setting [17]) it was above 500 nM; in experiment [4] (setting [19]), below 10 nM. Besides, the Dmax was above 70% in experiment [1] (setting [14]), 30 to 70% in experiment [2] (setting [16]), 30 to 70% in experiment [3] (setting [18]) and above 70% in experiment [4] (setting [20]).

For the molecule `O=C1CCN(c2ccc(N3CCC(CN4CCN(c5ccc(-n6cc(-c7cc(F)cc(NS(=O)(=O)N8CC[C@@H](F)C8)c7F)c(-c7ccncc7)n6)nc5)CC4)CC3)cc2)C(=O)N1` [Compound 303, (3R)—N-[3-(1-{5-[4-({1-[4-(2,4-dioxo-1,3-diazinan-1-yl)phenyl]piperidin-4-yl}methyl)piperazin-1-yl]pyridin-2-yl}-3-(pyridin-4-yl)-1H-pyrazol-4-yl)-2,5-difluorophenyl]-3-fluoropyrrolidine-1-sulfonamide], the DC50 in experiment [1] (setting [5]) was below 10 nM; in experiment [2] (setting [7]), below 10 nM; in experiment [3] (setting [9]), 50 to 500 nM; in experiment [4] (setting [11]), 10 to 50 nM. Further, the Dmax is above 70% in experiment [1] (setting [6]), 30 to 70% in experiment [2] (setting [8]), 30 to 70% in experiment [3] (setting [10]) and 30 to 70% in experiment [4] (setting [12]).

As a reminder, the DC50 is the concentration giving 50% degradation. One may read the Dmax as the largest share of the target that was removed.
